Assay results reported in patent publication US9284335B2, “Substituted pyrido[3,2-e][1,2,4]triazolo[1,5-c]pyrimidines, pyrido[2,3-e][1,2,4]triazolo[1,5-c]pyrimidines and/or [1,2,4]triazolo[1,5-c]pteridines for treatment of central nervous system diseases and disorders” (DART NEUROSCIENCE (CAYMAN) LTD., priority 2012, dated 2016).

Tested on: NS1 cells
Assay: Neurite outgrowth (NOG) assay
Format: cell-based
Method: Neuroscreen 1 (NS1) Cells (Cellomics Inc.) were cultured on collagen type I coated 75 cm2 plastic flasks (Biocoat, Becton Dickinson) in a humidified incubator at 37° C. in 5% CO2. Cells were cultured in RPMI complete cell culture medium (Cambrex) supplemented with 10% heat-inactivated horse serum (Invitrogen), 5% heat-inactivated fetal bovine serum (Cellgro), and 2 mM L-glutamine (Cambrex). For expansion, the cells were trypsinized and split at 80% confluence. Cell culture media was changed every 2 to 3 days.
NS1 cells were harvested and counted using a Coulter counter (Becton Dickinson Coulter Z1). Cells were seeded in 96-well collagen I coated plates at a density of 2000 cells per well in volume of 200 μl. RPMI media was supplemented with 200 ng/ml nerve growth factor (NGF, Sigma). NS1 cells were incubated for 72 hours to allow differentiation to a neuronal phenotype. […]
Antibody-stained 96-well plates were stored at 4° C. in the dark until scanning. […] The neurite outgrowth assay is based on two channels to scanning: (1) Channel 1, which detects the Hoechst Dye and is used by the software to identify cells and for automated focusing; and (2) Channel 2, which detects the FITC fluorescence of the secondary antibody and is used by the software to calculate all data generated in reference to neurites. […]

Which results are given for COc1ccc(C2CNC(=O)C2)cc1OC1CCCC1 (centres unmarked) [Rolipram]?
neurite length and branching / neurite outgrowth (in combination with forskolin): enhanced in dose-dependent manner; neurite length and branching / neurite outgrowth (without forskolin): not affected
